Laboratory results: ChEMBL document CHEMBL4052764, “Development of a prodrug of hydantoin based TACE inhibitor” (Bioorg Med Chem Lett, 2017)
Converted amounts (≈) assume the structure as drawn.

Experiments:
[1] = molecular target: Disintegrin and metalloproteinase domain-containing protein 17 (Homo sapiens, UniProt P78536); experiment: Inhibition of TACE in human whole blood assessed as inhibition of LPS-stimulated TNFalpha production pretreated for 1 hr followed by LPS stimulation for 3.5 hrs by ELISA
Rattus norvegicus [2] = experiment: AUC in rat assessed as (S)-5-(furo[3,2-b]pyridin-2-yl)-5-((6-methoxy-1-oxoisoindolin-2-yl)methyl)imidazolidine-2,4-dione level at 10 mg/kg, po by HPLC/MS analysis; assay type: ADME, organism-based; details: in vivo
[3] = AUC in rat at 100 mg/kg, po administered as single dose by LC/MS/MS analysis; assay type: ADME, organism-based; details: in vivo
[4] = AUC in rat at 300 mg/kg, po administered as single dose by LC/MS/MS analysis; assay type: ADME, organism-based; details: in vivo
[5] = AUC in rat at 500 mg/kg, po administered as single dose by LC/MS/MS analysis; assay type: ADME, organism-based; details: in vivo
[6] = AUC in rat at 10 mg/kg, po by HPLC/MS analysis; assay type: ADME, organism-based; details: in vivo
[7] = Permeability in human Caco2 cells at pH 7.4; assay type: ADME, cell-based; details: Caco-2, pH 7.4, read-out: permeability
[8] = Solubility of the compound at pH 6.5; assay type: physicochemical; details: buffer
Rattus norvegicus [9] = experiment: AUC in rat assessed as (S)-5-(furo[3,2-b]pyridin-2-yl)-5-((6-methoxy-1-oxoisoindolin-2-yl)methyl)imidazolidine-2,4-dione level at 100 mg/kg, po administered as single dose by LC/MS/MS analysis; assay type: ADME, organism-based; details: in vivo
Rattus norvegicus [10] = experiment: AUC in rat assessed as (S)-5-(furo[3,2-b]pyridin-2-yl)-5-((6-methoxy-1-oxoisoindolin-2-yl)methyl)imidazolidine-2,4-dione level at 300 mg/kg, po administered as single dose by LC/MS/MS analysis; assay type: ADME, organism-based; details: in vivo
Rattus norvegicus [11] = experiment: AUC in rat assessed as (S)-5-(furo[3,2-b]pyridin-2-yl)-5-((6-methoxy-1-oxoisoindolin-2-yl)methyl)imidazolidine-2,4-dione level at 500 mg/kg, po administered as single dose by LC/MS/MS analysis; assay type: ADME, organism-based; details: in vivo
Rattus norvegicus [12] = experiment: Oral bioavailability in rat assessed as (S)-5-(furo[3,2-b]pyridin-2-yl)-5-((6-methoxy-1-oxoisoindolin-2-yl)methyl)imidazolidine-2,4-dione level at 10 mg/kg by LC/MS/MS analysis; assay type: ADME, organism-based; details: in vivo
Rhesus monkey = experiment: Oral bioavailability in monkey assessed as (S)-5-(furo[3,2-b]pyridin-2-yl)-5-((6-methoxy-1-oxoisoindolin-2-yl)methyl)imidazolidine-2,4-dione level by LC/MS/MS analysis; assay type: ADME, organism-based, Macaca mulatta; details: in vivo
Canis familiaris = experiment: Oral bioavailability in dog assessed as (S)-5-(furo[3,2-b]pyridin-2-yl)-5-((6-methoxy-1-oxoisoindolin-2-yl)methyl)imidazolidine-2,4-dione level by LC/MS/MS analysis; assay type: ADME, organism-based, Canis lupus familiaris; details: in vivo
[13] = Prodrug activation in human intestinal microsomes assessed as (S)-5-(furo[3,2-b]pyridin-2-yl)-5-((6-methoxy-1-oxoisoindolin-2-yl)methyl)imidazolidine-2,4-dione formation; design: species or system Intestine, Microsome
Liver [14] = experiment: Prodrug activation in mouse liver microsomes assessed as (S)-5-(furo[3,2-b]pyridin-2-yl)-5-((6-methoxy-1-oxoisoindolin-2-yl)methyl)imidazolidine-2,4-dione formation; assay type: microsome
Liver [15] = experiment: Prodrug activation in rat liver microsomes assessed as (S)-5-(furo[3,2-b]pyridin-2-yl)-5-((6-methoxy-1-oxoisoindolin-2-yl)methyl)imidazolidine-2,4-dione formation; assay type: microsome
Liver [16] = experiment: Prodrug activation in dog liver microsomes assessed as (S)-5-(furo[3,2-b]pyridin-2-yl)-5-((6-methoxy-1-oxoisoindolin-2-yl)methyl)imidazolidine-2,4-dione formation; assay type: Canis lupus familiaris, microsome
[17] = Prodrug activation in monkey liver microsomes assessed as (S)-5-(furo[3,2-b]pyridin-2-yl)-5-((6-methoxy-1-oxoisoindolin-2-yl)methyl)imidazolidine-2,4-dione formation; assay type: Macaca mulatta, microsome; details: rhesus monkey
Liver [18] = experiment: Prodrug activation in human liver microsomes assessed as (S)-5-(furo[3,2-b]pyridin-2-yl)-5-((6-methoxy-1-oxoisoindolin-2-yl)methyl)imidazolidine-2,4-dione formation; assay type: microsome
[19] = AUC in rat at 10 mg/kg, po by LC/MS/MS analysis; assay type: ADME, organism-based; details: in vivo
[20] = AUC in monkey at 10 mg/kg, po by LC/MS/MS analysis; assay type: ADME, organism-based, Macaca mulatta; details: rhesus monkey, in vivo
[21] = AUC in dog at 10 mg/kg, po by LC/MS/MS analysis; assay type: ADME, organism-based, Canis lupus familiaris; details: in vivo
[22] = Oral bioavailability in rat at 10 mg/kg by LC/MS/MS analysis; assay type: ADME, organism-based; details: in vivo
[23] = Oral bioavailability in monkey at 10 mg/kg by LC/MS/MS analysis; assay type: ADME, organism-based, Macaca mulatta; details: rhesus monkey, in vivo
[24] = Oral bioavailability in dog at 10 mg/kg by LC/MS/MS analysis; assay type: ADME, organism-based, Canis lupus familiaris; details: in vivo
Rattus norvegicus [25] = experiment: AUC in rat assessed as (S)-5-(5-(4-ethylpiperazin-1-yl)furo[3,2-b]pyridin-2-yl)-5-((7-fluoro-6-methoxy-1-oxoisoindolin-2-yl)methyl)imidazolidine-2,4-dione level at 10 mg/kg, po by LC/MS/MS analysis; assay type: ADME, organism-based; details: in vivo
Rattus norvegicus [26] = experiment: Oral bioavailability in rat assessed as (S)-5-(5-(4-ethylpiperazin-1-yl)furo[3,2-b]pyridin-2-yl)-5-((7-fluoro-6-methoxy-1-oxoisoindolin-2-yl)methyl)imidazolidine-2,4-dione level at 10 mg/kg by LC/MS/MS analysis; assay type: ADME, organism-based; details: in vivo

Chain of Disintegrin and metalloproteinase domain-containing protein 17 (P78536 whole entry, the tested form may be a part): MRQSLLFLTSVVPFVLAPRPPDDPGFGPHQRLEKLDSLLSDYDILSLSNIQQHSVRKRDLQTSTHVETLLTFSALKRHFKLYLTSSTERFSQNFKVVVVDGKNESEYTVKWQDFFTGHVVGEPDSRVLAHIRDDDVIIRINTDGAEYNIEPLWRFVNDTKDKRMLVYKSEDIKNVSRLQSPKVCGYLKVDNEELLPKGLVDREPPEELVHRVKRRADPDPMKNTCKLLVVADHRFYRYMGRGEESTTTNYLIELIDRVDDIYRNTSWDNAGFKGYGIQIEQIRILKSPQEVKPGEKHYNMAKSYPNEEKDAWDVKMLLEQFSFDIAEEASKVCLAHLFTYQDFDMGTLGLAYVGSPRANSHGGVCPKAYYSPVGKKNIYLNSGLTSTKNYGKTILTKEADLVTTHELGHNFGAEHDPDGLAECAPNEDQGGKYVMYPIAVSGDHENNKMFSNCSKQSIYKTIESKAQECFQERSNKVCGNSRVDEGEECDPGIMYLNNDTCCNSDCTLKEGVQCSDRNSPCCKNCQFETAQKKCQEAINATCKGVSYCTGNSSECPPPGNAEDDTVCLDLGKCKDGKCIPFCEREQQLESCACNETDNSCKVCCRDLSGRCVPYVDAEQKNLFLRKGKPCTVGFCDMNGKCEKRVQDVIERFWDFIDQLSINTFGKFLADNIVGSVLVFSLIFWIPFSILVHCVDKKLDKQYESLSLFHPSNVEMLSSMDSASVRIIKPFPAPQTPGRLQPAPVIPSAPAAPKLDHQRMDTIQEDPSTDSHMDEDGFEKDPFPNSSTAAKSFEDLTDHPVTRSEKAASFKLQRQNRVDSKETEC

COc1ccc2c(c1F)C(=O)N(C[C@@]1(c3cc4nc(-c5cn[nH]c5)ccc4o3)NC(=O)N(COC(=O)C(C)(C)C)C1=O)C2
IC50 [1]: 141 nM | AUC (Rattus norvegicus [2]): 0.3 µM·h

COc1ccc2c(c1)C(=O)N(C[C@@]1(c3cc4nc(N5CCNCC5)ccc4o3)NC(=O)N(COC(=O)C(C)(C)C)C1=O)C2
IC50 [1]: 156 nM

COCCOCCOCCN1C(=O)N[C@@](CN2Cc3ccc(OC)cc3C2=O)(c2cc3ncccc3o2)C1=O
AUC (Rattus norvegicus [2]): 0.02 µM·h

COc1ccc2c(c1)C(=O)N(C[C@@]1(c3cc4ncccc4o3)NC(=O)N(COC(=O)c3ccccc3OC(C)=O)C1=O)C2
IC50 [1]: 560 nM | AUC (Rattus norvegicus [2]): 4.4 µM·h

COc1ccc2c(c1)C(=O)N(C[C@@]1(c3cc4ncccc4o3)NC(=O)NC1=O)C2
AUC [3]: 120 µM·h | AUC [4]: 130 µM·h | AUC [5]: 240 µM·h | IC50 [1]: 287 nM | AUC [6]: 8.6 µM·h | Papp [7]: 1.2 ×10⁻⁶ cm/s | solubility [8]: 39 µM (≈ 15.3 µg/mL)

COc1ccc2c(c1)C(=O)N(C[C@@]1(c3cc4nc(N5CCCNC5=O)ccc4o3)NC(=O)N(COC(=O)C(C)(C)C)C1=O)C2
IC50 [1]: 282 nM | AUC (Rattus norvegicus [2]): 0.2 µM·h

COc1ccc2c(c1F)C(=O)N(C[C@@]1(c3cc4nc(N)ccc4o3)NC(=O)N(COC(=O)C(C)(C)C)C1=O)C2
IC50 [1]: 178 nM | AUC (Rattus norvegicus [2]): 0.4 µM·h

COc1ccc2c(c1F)C(=O)N(C[C@@]1(c3cc4nc(N5CCNC(=O)C5)ccc4o3)NC(=O)N(COC(=O)C(C)(C)C)C1=O)C2
IC50 [1]: 104 nM | AUC (Rattus norvegicus [2]): 0.6 µM·h

CCN1C(=O)N[C@@](CN2Cc3ccc(OC)cc3C2=O)(c2cc3ncccc3o2)C1=O
AUC (Rattus norvegicus [2]): 0.9 µM·h

CCN1CCN(c2ccc3oc([C@]4(CN5Cc6ccc(OC)cc6C5=O)NC(=O)N(COC(=O)C(C)(C)C)C4=O)cc3n2)CC1
IC50 [1]: 176 nM | AUC (Rattus norvegicus [2]): 0.7 µM·h

COc1ccc2c(c1)C(=O)N(C[C@@]1(c3cc4nc(N5CC[C@@H](O)C5)ccc4o3)NC(=O)N(COC(=O)C(C)(C)C)C1=O)C2
IC50 [1]: 339 nM | AUC (Rattus norvegicus [2]): 2.7 µM·h

COc1ccc2c(c1)C(=O)N(C[C@]1(c3cc4ncccc4o3)C(=O)N(COC(=O)C(C)(C)C)C(=O)N1COC(=O)C(C)(C)C)C2
AUC (Rattus norvegicus [2]): 3.1 µM·h

COc1ccc2c(c1)C(=O)N(C[C@@]1(c3cc4ncccc4o3)NC(=O)N(C)C1=O)C2
AUC (Rattus norvegicus [2]): 0.9 µM·h

CCOP(=O)(OCC)OCN1C(=O)N[C@@](CN2Cc3ccc(OC)cc3C2=O)(c2cc3ncccc3o2)C1=O
AUC (Rattus norvegicus [2]): 0.05 µM·h

COc1ccc2c(c1F)C(=O)N(C[C@@]1(c3cc4nc(N5CCN(C)CC5)ccc4o3)NC(=O)N(COC(=O)C(C)(C)C)C1=O)C2
IC50 [1]: 92 nM | AUC (Rattus norvegicus [2]): 8.6 µM·h

COc1ccc2c(c1)C(=O)N(C[C@@]1(c3cc4ncccc4o3)NC(=O)N(COC(=O)C(C)(C)C)C1=O)C2
IC50 [1]: 281 nM | AUC (Rattus norvegicus [2]): 13.1 µM·h | AUC (Rattus norvegicus [9]): 210 µM·h | AUC (Rattus norvegicus [10]): 780 µM·h | AUC (Rattus norvegicus [11]): 1450 µM·h | Papp [7]: > 11.6 ×10⁻⁶ cm/s | solubility [8]: 175 µM (≈ 88.6 µg/mL) | F (Rattus norvegicus [12]): 74% | F (Rhesus monkey): 92% | F (Canis familiaris): 72% | Drug metabolism [13]: Metabolite_Detected | Drug metabolism (Liver [14]): Metabolite_Detected | Drug metabolism (Liver [15]): Metabolite_Detected | Drug metabolism (Liver [16]): Metabolite_Detected | Drug metabolism [17]: Metabolite_Detected | Drug metabolism (Liver [18]): Metabolite_Detected

COc1ccc2c(c1)C(=O)N(C[C@@]1(c3cc4ncccc4o3)NC(=O)NC1=O)C2.[Na+]
AUC [19]: 10 µM·h | AUC [20]: 5.2 µM·h | AUC [21]: 41 µM·h | bioavailability [22]: 35% | bioavailability [23]: 46% | bioavailability [24]: 82%

CCN1CCN(c2ccc3oc([C@]4(CN5Cc6ccc(OC)c(F)c6C5=O)NC(=O)N(COC(=O)C(C)(C)C)C4=O)cc3n2)CC1
IC50 [1]: 61 nM | AUC (Rattus norvegicus [2]): 20 µM·h | AUC (Rattus norvegicus [25]): 4.7 µM·h | F (Rattus norvegicus [26]): 7%

COc1ccc2c(c1)C(=O)N(C[C@@]1(c3cc4ncccc4o3)NC(=O)N(C(C)C)C1=O)C2
IC50 [1]: 7150 nM | AUC (Rattus norvegicus [2]): 0.4 µM·h
